Data reported in US9440941B2, “Substituted chroman-6-yloxy-cycloalkanes and their use as pharmaceuticals” (SANOFI, priority 2013, dated 2016).
pIC50: −log10 of the molar value. Structures can show the parent of a compound that is named as a salt.

Each compound was assayed against T1, human NCX1 (Homo sapiens, UniProt P32418) (assay: Inhibition of Ca2+ influx into cells (NCX1 reverse mode), FLIPR Fluo-4 assay). Details: at 10 μM; NCX1 reverse mode; IC50 value not determined; read-out: Inhibition in % at 10 μM (NCX1rv).
T1 construct: expressed in transfected cells
Format: cell-based
In short: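 Ca2+ influx via reverse-mode exchange was evoked with gramicidin (20 µM final) after 45 min compound exposure at 16 °C in stably transfected CHO cells. Fluo-4 signal (520 nm) was followed on FLIPR at 2 s intervals. Max–min fluorescence gave percentage inhibition, from which IC50 was calculated.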

| Compound | inhibition at 10 µM [%] |
| --- | --- |
| Cc1ccccc1C1CCc2cc(OC3CCC(NCCC4CCOCC4)CC3)ccc2O1 (centres unmarked) [compound 196] | 97 |
| Cc1ccccc1C1CCc2cc(OC3CCC(NCCCC4CCOC4)CC3)ccc2O1 (centres unmarked) [compound 198] | 97 |

Same assay, conditions: at 10 μM; NCX1 reverse mode; IC50 value not determined; read-out: NCX1rv inhibition in % at 10 μM

| Compound | inhibition at 10 µM [%] |
| --- | --- |
| CCSCCNC1CCC(Oc2ccc3c(c2)CCC(c2ccccc2C)O3)CC1 (centres unmarked) [compound 191] | 95 |
| COCCNC1CCC(Oc2ccc3c(c2)CCC(c2ccccc2C)O3)CC1 (centres unmarked) [compound 189] | 100 |

Same assay, conditions: inhibition of NCX1 in reverse mode (Ca2+ influx into cells); read-out: NCX1rv IC50

| Compound | pIC50 |
| --- | --- |
| CSC(C)CCN[C@H]1CC[C@H](Oc2ccc3c(c2)CCC(c2ccccc2)O3)CC1 (stereo partly drawn) [compound 64, N-(3-Methylsulfanylbutyl)-[trans-4-(2-phenylchroman-6-yloxy)]-cyclohexylamine] | 6.30 |
| Cc1c(F)cccc1C1CCc2cc(OC3CCC(C(=O)NC4CCCCC4O)CC3)ccc2O1 (single isomer, unassigned) [compound 287] | 7.00 |
| Cc1nc(CNC(=O)[C@H]2CC[C@@H](Oc3ccc4c(c3)CCC(c3ccccc3)O4)CC2)no1 (single isomer, unassigned; stereoisomer 2) [compound 96, N-(5-Methyl-[1,2,4]oxadiazol-3-ylmethyl)-[4-cis-(2-phenylchroman-6-yloxy)]-cyclohexanecarboxamide, stereoisomer 2 (2)] | 6.40 |
| Cc1nn(C)c(C)c1CCC(=O)N[C@H]1CC[C@H](Oc2ccc3c(c2)CCC(c2ccccc2F)O3)CC1 (relative stereo) [compound 254] | 6.52 |
| NC1(Cc2ccccc2)CCC(Oc2ccc3c(c2)CCC(c2ccccc2)O3)CC1 (single isomer, unassigned) [compound 45, 1-Benzyl-4-(2-phenylchroman-6-yloxy)-cyclohexylamine, stereoisomeric mixture 1] | 4.66 |
| Fc1ccccc1C1CCc2cc(OC3CCC(NC4CC4)CC3)ccc2O1 (centres unmarked) [compound 212] | 5.77 |
| NCC1CCC(Oc2ccc3c(c2)CCC(c2ccccc2)O3)C1 (centres unmarked) [compound 305, hydrochloride] | 5.82 |
| c1ccc(C2CCc3cc(O[C@H]4CC[C@H](NCC5CCCCC5)CC4)ccc3O2)cc1 (stereo partly drawn) [compound 63, N-(Cyclohexylmethyl)-[trans-4-(2-phenylchroman-6-yloxy)]-cyclohexylamine] | 6.22 |
| O=S(=O)(CCc1ccncc1)N[C@H]1CC[C@H](Oc2ccc3c(c2)CC[C@@H](c2ccccc2)O3)CC1 [compound 75] | 6.00 |
| Cc1ccn(CC(=O)N[C@H]2CC[C@H](Oc3ccc4c(c3)CCC(c3ccccc3F)O4)CC2)n1 (relative stereo) [compound 250] | 6.10 |
| N-[2-(1,1-Dioxo-thiomorpholin-4-yl)ethyl]-4-(2-phenylchroman-6-yloxy)-cyclohexylamine [compound 138] | 6.22 |
| Cc1ccccc1C1CCc2cc(O[C@H]3CC[C@@H](CNC(=O)CN)CC3)ccc2O1 (relative stereo) [compound 185, hydrochloride] | 6.22 |
| CCC(C)(O)C(=O)N[C@H]1CC[C@H](Oc2ccc3c(c2)CCC(c2ccccc2)O3)CC1 (relative stereo) [compound 44] | 6.52 |
| Cc1csc(CN[C@H]2CC[C@H](Oc3ccc4c(c3)CCC(c3ccccc3)O4)CC2)n1 (stereo partly drawn) [compound 52, N-[(4-Methylthiazol-2-yl)methyl]-[trans-4-(2-phenylchroman-6-yloxy)]-cyclohexylamine] | 6.30 |
| c1ccc(C2CCc3cc(OC4CCC(NCCSC5CCCCC5)CC4)ccc3O2)cc1 (centres unmarked) [compound 117] | 5.43 |
| CSCCCN[C@H]1CC[C@H](Oc2ccc3c(c2)CCC(c2ccccc2)O3)CC1 (stereo partly drawn) [compound 48, N-(3-Methylsulfanylpropyl)-[trans-4-(2-phenylchroman-6-yloxy)]-cyclohexylamine] | 6.30 |
| c1ccc(C2CCc3cc(O[C@H]4CC[C@H](N(Cc5ccsc5)Cc5ccsc5)CC4)ccc3O2)cc1 (stereo partly drawn) [compound 79, [trans-4-(2-Phenylchroman-6-yloxy)]-N,N-bis(thiophen-3-ylmethyl)cyclohexylamine] | 4.96 |
| O=C(NCCO)C1CCC(Oc2ccc3c(c2)CC[C@H](c2ccccc2)O3)CC1 (some centres unmarked) [compound 99] | 6.52 |
| CC(=O)OC1CCC(Oc2ccc3c(c2)CCC(c2ccccc2)O3)CC1 (centres unmarked) [compound 78, [4-(2-Phenylchroman-6-yloxy)cyclohexyl] acetate] | 6.22 |
| c1ccc(C2CCc3cc(OC4CCC(NCCC5CCOCC5)CC4)ccc3O2)cc1 (centres unmarked) [compound 120] | 6.10 |
| Cc1noc(CCC(=O)N[C@H]2CC[C@H](Oc3ccc4c(c3)CCC(c3ccccc3F)O4)CC2)n1 (relative stereo) [compound 248] | 6.70 |
| Cc1ccccc1C1CCc2cc(OC3CCC(NC4CCCC4)CC3)ccc2O1 (centres unmarked) [compound 204] | 5.72 |
| c1ccc(C2CCc3cc(O[C@H]4CC[C@H](NCc5ccoc5)CC4)ccc3O2)cc1 (stereo partly drawn) [compound 53, N-(Furan-3-ylmethyl)-[trans-4-(2-phenylchroman-6-yloxy)]-cyclohexylamine] | 6.30 |
| CCCC1(O)CCC(Oc2ccc3c(c2)CCC(c2ccccc2)O3)CC1 (centres unmarked) [compound 90, 4-(2-Phenylchroman-6-yloxy)-1-propyl-cyclohexanol] | 6.70 |
| c1ccc(C2CCc3cc(OC4CCC(NCCCC5CCOC5)CC4)ccc3O2)cc1 (centres unmarked) [compound 116] | 6.22 |
| c1ccc(C2CCc3cc(OC4CCC(NC5CCOCC5)CC4)ccc3O2)cc1 (centres unmarked) [compound 125] | 5.72 |
| CC(C)(C)CCNC1CCC(Oc2ccc3c(c2)CCC(c2ccccc2)O3)CC1 (centres unmarked) [compound 127] | 5.96 |
| Cc1nn(C)c(C)c1CNC1CCC(Oc2ccc3c(c2)CCC(c2ccccc2F)O3)CC1 (centres unmarked) [compound 169] | 5.60 |

| Compound | pIC50 |
| --- | --- |
| Cc1c(F)cccc1C1CCc2cc(OC3CCC(C(=O)NCC(N)=O)CC3)ccc2O1 (centres unmarked) [compound 272] | 6.40 |
| CSCCNC1CCC(Oc2ccc3c(c2)CCC(c2ccccc2F)O3)CC1 (centres unmarked) [compound 226] | 5.62 |
| Cn1cncc1CN[C@H]1CC[C@H](Oc2ccc3c(c2)CCC(c2ccccc2)O3)CC1 (stereo partly drawn) [compound 57, N-(3-Methylimidazol-4-ylmethyl)-[trans-4-(2-phenylchroman-6-yloxy)]-cyclohexylamine] | 6.30 |
| Cc1ccccc1C1CCc2cc(O[C@H]3CC[C@H](N(CC4CCOC4)CC4CCOC4)CC3)ccc2O1 (relative stereo) [compound 155, Bis-(tetrahydrofuran-3-ylmethyl)-[trans-4-(2-o-tolyl-chroman-6-yloxy)-cyclohexyl]-amine] | 5.28 |
| O=C(CN1CCCC1)N[C@H]1CC[C@H](Oc2ccc3c(c2)CCC(c2ccccc2)O3)CC1 (relative stereo) [compound 182] | 6.52 |
| CO[C@H](C)C(=O)N[C@H]1CC[C@H](Oc2ccc3c(c2)CCC(c2ccccc2)O3)CC1 (some centres unmarked) [compound 23] | 6.52 |
| COC[C@H](C)NC1CCC(Oc2ccc3c(c2)CCC(c2ccccc2F)O3)CC1 (some centres unmarked) [compound 221] | 5.64 |
| O=C(NCc1ccnc(Cl)c1)C1CCC(Oc2ccc3c(c2)CCC(c2ccccc2F)O3)CC1 (centres unmarked) [compound 184] | 5.89 |
| 4-(2-Phenylchroman-6-yloxy)-N-(2-piperidin-1-ylethyl)cyclohexylamine [compound 145] | 5.68 |
| COCC(C)(C)CNC1CCC(Oc2ccc3c(c2)CCC(c2ccccc2F)O3)CC1 (centres unmarked) [compound 211] | 5.66 |
| O=C(NCCO)C1CCC(Oc2ccc3c(c2)CC[C@@H](c2ccccc2)O3)CC1 (stereo partly drawn) [compound 102, N-(2-Hydroxyethyl)-4-((S)-2-phenylchroman-6-yloxy)-cyclohexanecarboxamide] | 5.96 |
| O=C(NCCO)C1CCC(Oc2ccc3c(c2)CCC(c2ccccc2F)O3)CC1 (centres unmarked) [compound 173] | 6.15 |
| Cc1cccc(C)c1C1CCc2cc(OC3CCC(C(=O)NCc4ccno4)CC3)ccc2O1 (centres unmarked) [compound 167] | 5.11 |
| c1ccc(C2CCc3cc(O[C@H]4CC[C@H](N(CC5CC5)CC5CC5)CC4)ccc3O2)cc1 (stereo partly drawn) [compound 80, N,N-Bis(cyclopropylmethyl)-[trans-4-(2-phenylchroman-6-yloxy)]-cyclohexylamine] | 6.30 |
| CCCNC1CCC(Oc2ccc3c(c2)CCC(c2ccccc2C)O3)CC1 (centres unmarked) [compound 205] | 5.82 |
| CCn1cc(CN[C@H]2CC[C@H](Oc3ccc4c(c3)CCC(c3ccccc3)O4)CC2)c(C)n1 (stereo partly drawn) [compound 68, N-(1-Ethyl-3-methyl-pyrazol-4-ylmethyl)-[trans-4-(2-phenylchroman-6-yloxy)]-cyclohexylamine] | 6.52 |
| CCSCCNC1CCC(Oc2ccc3c(c2)CCC(c2ccccc2F)O3)CC1 (centres unmarked) [compound 217] | 5.64 |
| Cc1ccn(CC(=O)N[C@H]2CC[C@H](Oc3ccc4c(c3)CCC(c3ccccc3)O4)CC2)n1 (relative stereo) [compound 28] | 6.70 |
| CCCC1(N)CCC(Oc2ccc3c(c2)CCC(c2ccccc2)O3)CC1 (centres unmarked) [compound 17, hydrochloride] | 6.00 |
| CCCC(C)NC1CCC(Oc2ccc3c(c2)CCC(c2ccccc2)O3)CC1 (centres unmarked) [compound 106] | 6.10 |
| Cc1nn(C)c(C)c1CN[C@H]1CC[C@H](Oc2ccc3c(c2)CCC(c2ccccc2)O3)CC1 (relative stereo) [compound 60] | 6.40 |
| O=C(CCn1cccn1)N[C@H]1CC[C@H](Oc2ccc3c(c2)CCC(c2ccccc2)O3)CC1 (relative stereo) [compound 39] | 6.52 |
| COCCCNC1CCC(Oc2ccc3c(c2)CCC(c2ccccc2F)O3)CC1 (centres unmarked) [compound 215] | 5.55 |
| CCCC1(NC2CCC(Oc3ccc4c(c3)CCC(c3ccccc3)O4)CC2)CC1 (centres unmarked) [compound 124] | 5.62 |
| Fc1ccccc1C1CCc2cc(OC3CCC(NCCCC4CCOC4)CC3)ccc2O1 (centres unmarked) [compound 228] | 5.66 |
| CC(C)OCCCNC1CCC(Oc2ccc3c(c2)CCC(c2ccccc2)O3)CC1 (centres unmarked) [compound 134] | 5.96 |
| CSC(C)CCNC1CCC(Oc2ccc3c(c2)CCC(c2ccccc2F)O3)CC1 (centres unmarked) [compound 170] | 5.34 |
